Tests used:
[1] = rheumatoid arthritis; possibly; cited from earlier work
[2] = target: T1, purified recombinant human p38 alpha MAPK (Homo sapiens, UniProt Q16539); test: Inhibition of p38 alpha MAPK activity: TR-FRET kinase assay; assay type: biochemical; conditions: read-out: P38α Inhibition; for inhibition at 1 µM: Concentration 1 μM
T1 construct: purchased Millipore, USA
Protocol: Inhibition of p38 Alpha MAPK Activity: Time-Resolved Fluorescence Resonance Energy Transfer Kinase Standard Assay (TR-FRET Assay)
Compounds of present invention at various concentrations were premixed with DMSO. The experiment was initiated by mixing 0.5% 1.0% DMSO as vehicle/compounds with purified recombinant human p38 alpha MAPK (Millipore, USA) in the wells and 15 min incubation at RT. Thereafter, 30 nM of Biotinylated GST-ATF2 (Activation Transcription Factor2) and 100 μM of ATP were added in to the wells containing reaction mixture, followed by reincubation for 60 minutes at RT. Reaction was terminated by addition of 10 mM of EDTA and detection reagent containing anti-phosphothreonine ATF2 antibody (Perkin Elmer, USA) labelled with europium chelate and APC (Allophycocyanin) labeled streptavidin, into the reaction mixture which was further incubated for 60 minutes at room temperature. The degree of phosphorylation of the substrate (GST-ATF2) was measured using Envision multimode reader (Perkin Elmer). Percentage inhibition of p38 kinase activity was calculated by determining ratio of specific europium 665 nm energy transfer signal to reference 615 nm signal.

[3] = system: tobacco smoke induced airway inflammation in mice; test: Acute mouse model of tobacco smoke induced airway inflammation (BALF neutrophils); assay type: in vivo; conditions: BAL fluid, exposure 25 minutes; for Neutrophil (*10^3 cells/animal): Mean ± SEM
Source text: The tobacco smoke induced airway inflammation model is used for in vivo efficacy of compound. Many investigators have used acute tobacco smoke (TS) exposure in rodents as models of airway inflammation for quick screening of anti-inflammatory therapies for COPD (J Pharmacol Exp Ther. 2008; 324(3):921-9; J Pharmacol Exp Ther. 2010; 332(3):764-75; Journal of Inflammation 2013, 10(Suppl 1):31 and Eur Respir J Suppl 2006; 663s:3850). Given its position as predominant cause of COPD, animal models using TS exposure would appear to be the logical choice for investigation (Respir Res. 2004; 2; 5:18).
A: Efficacy Studies in Acute Mouse Model of Airway Inflammation
Mice were exposed to tobacco smoke (TS) in an acrylic chamber. Animals were exposed to TS from 8, 12, 16 cigarettes on day1, day2, day 3 respectively. From day 4 onwards till day 11, animals were exposed to TS from 20 cigarettes per day. On 11 days of exposure of mice to TS, significant inflammatory cell recruitment, predominantly neutrophils, to lungs was observed as compared to air exposed control mice (BALF neutrophil levels, nil in air control group vs 93.8±11.7*10^3 cells/animal in smoke exposed vehicle group).
Lung delivery of test compound was achieved by whole body aerosol exposure for 25 minutes in a chamber. Mice were divided in different dose groups and exposed in a chamber for 25 minutes with vehicle or Compound No. 22 (0.3 mg/ml) or Compound No. 22 (3 mg/ml)) or Compound No. 31 (0.3 mg/ml) or Compound No. 31 (1.0 mg/ml). A total quantity of 3.5 ml of either vehicle or test compound formulation (suspension formulation with D90<5μ, with Malvern Mastersizer®) was nebulized in a chamber to respective groups over 25 mins period. Test compounds were administered 2 hr prior to TS exposure from day 6 to day 11. Bronchoalveolar lavage (BAL) was performed 24 hr post last TS exposure.
Trachea of animal was cannulated using catheter. Phosphate Buffer Saline (PBS) was used as lavage fluid. A volume of 0.5 ml was gently instilled and withdrawn and collected in microcentrifuge tube placed on ice. This procedure was repeated further 2 times.
(§1) Lavage fluid was separated from cells by centrifugation and supernatant separated. The cell pallet was resuspended in known volume of PBS. Cells in aliquot were stained using Turk solution and total cell numbers were calculated by counting Turk stained aliquot under microscope using haemocytometer.
(§2) The residual cell suspension was resuspended and slides prepared using cyto centrifuge technique (Cytospin 4, Thermo Shandon). The slides were then fixed with methanol, air dried and stained with May Grunwald Giemsa stain. Up to 300 cells were counted and differentiated using standard morphometric techniques under light microscopy.
All results are presented at individual data for each animal and mean value calculated for each group. Percentage inhibition for the neutrophil was calculated for Compound No. 22 & 31 treatment group against vehicle group.

[4] = system: tobacco smoke induced airway inflammation in guinea pig; test: Acute guinea pig model of tobacco smoke induced airway inflammation (BALF neutrophils); assay type: in vivo, Guinea pigs; conditions: BAL fluid, 6 mg/ml aerosol, exposure 75 minutes
Source text: B. (I) Efficacy Studies in Acute Guinea Pig Model of Airway Inflammation
Guinea pigs were exposed to tobacco smoke (TS) in an acrylic chamber. Animals were exposed to TS from 5, 10, 15 cigarettes on day 1, day 2, day 3 respectively. From day 4 onwards till day 11, animals were exposed to TS from 15 cigarettes per day. On 11 days of exposure of guinea pig to TS, significant inflammatory cell recruitment, predominantly neutrophils, to lungs was observed as compared to air exposed control guinea pig (BALF neutrophil levels, 0.23±0.052*10^6 cells/animal in air control group vs 3.5±0.62*10^6 cells/animal in smoke exposed vehicle group).
Lung delivery of test compound was achieved by whole body aerosol exposure for 75 minutes in a chamber. […] A total quantity of 7.0 ml of either vehicle or test compound formulation (suspension formulation with D90<5μ, with Malvern Mastersizer®) was nebulized in chambers to respective groups over 75 mins period. […]
Lavage fluid was separated from cells by centrifugation and supernatant separated. […] Cells in aliquot were stained using Turk solution and total cell numbers were calculated by counting Turk stained aliquot under microscope using haemocytometer. […]
All results are presented at individual data for each animal and mean value calculated for each group. Percentage inhibition for the neutrophil was calculated for Compound No 31 treatment group against vehicle group.

[5] = system: tobacco smoke (TS) and LPS induced chronic COPD model in guinea pigs; test: Chronic model of COPD in guinea pigs (TS and LPS, 18 weeks); assay type: in vivo
Protocol: (II) Efficacy Studies in Chronic Model of COPD in Guinea Pigs
Guinea pigs were exposed to tobacco smoke (TS) and LPS in an acrylic chamber. Exposure to TS and LPS is given in the manner as illustrated in FIG. 3 in a week for a total of 18 weeks.
Lung delivery of test material was achieved by whole body aerosol exposure for 75 minutes in a chamber. Guinea pig were divided in different dose groups and exposed to vehicle or Compound No. 31 (2 mg/ml). A total quantity of 7.0 ml of either vehicle or Compound No. 31 (suspension formulation with D90<5μ, with Malvern Mastersizer®) was nebulized in chambers to respective groups over 75 mins period. Compound No 31 was administered 2 hr prior to TS/LPS exposure once daily from week 9 to week 18. Control animals were exposed to room air instead of TS and PBS instead of LPS. Lung function and bronchoalveolar lavage (BAL) for each animal was performed 24 hr post last TS exposure.
Lung function assessment in anesthetized and tracheotomized animal was carried out using PFT maneuvers (BUXCO, USA) for determination of various parameters such as Functional Residual Capacity (FRC), Residual volume (RV), Pressure volume and flow volume relationships.
Trachea of animal was cannulated using catheter. Phosphate Buffer Saline (PBS) was used as lavage fluid. A volume of 5.0 ml was gently instilled and withdrawn and collected in microcentrifuge tube placed on ice. This procedure was repeated further 5 times.
as §1, §2
After collection of BALF lung was fixed under constant pressure using neutral buffered formaline, which is to be used further for histopathological analysis. Hematoxylin and eosin stained slides were used for assessment of lung inflammatory cell influx and alveolar & epithelial inflammatory changes. Periodic acid-Schiff-diastase stained slides were used to evaluate mucin secreting cells and Masson's trichome stained slides were used for assessment of collagen fibers in parenchyma.
All results are presented at individual data for each animal and mean value calculated for each group. Percentage inhibition for the neutrophil was calculated for compound no 31 group against vehicle group.

[6] = treated up to 12-24 weeks; cited from earlier work
[7] = rheumatoid arthritis patients; single low dose tested; compared to placebo; cited from earlier work
[8] = dogs, 6-month safety study; cited from earlier work

T1 sequence (Q16539 whole entry): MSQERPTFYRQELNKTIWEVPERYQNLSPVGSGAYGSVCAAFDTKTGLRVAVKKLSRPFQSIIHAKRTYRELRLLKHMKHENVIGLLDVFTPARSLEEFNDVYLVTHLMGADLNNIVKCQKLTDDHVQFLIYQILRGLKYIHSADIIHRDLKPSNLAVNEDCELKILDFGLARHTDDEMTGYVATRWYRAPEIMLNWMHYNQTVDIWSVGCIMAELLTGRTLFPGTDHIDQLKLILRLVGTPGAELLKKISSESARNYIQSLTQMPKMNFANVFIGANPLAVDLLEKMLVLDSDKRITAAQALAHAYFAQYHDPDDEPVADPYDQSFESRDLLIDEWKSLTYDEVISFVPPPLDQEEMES

## Cc1ccc(-n2nc(C(C)(C)C)cc2NC(=O)Nc2ccc(OCCN3CCOCC3)c3ccccc23)cc1 [BIRB-796]
[1]
  reason for withdrawal from Phase II clinical trials: liver enzyme elevations

## CC(C)(C)c1cc(NC(=O)NCc2ccccc2Oc2ccc3c(c2)sc2ncc(CO)n23)n(-c2ccc(O)c(Cl)c2)n1 [Compound 22, 1-[3-tert-butyl-1-(3-chloro-4-hydroxyphenyl)-1H-pyrazol-5-yl]-3-(2-{[3-(hydroxymethyl)imidazo[2,1-b][1,3]benzothiazol-7-yl]oxy}benzyl)urea]
[2]
  inhibition at 1 µM: 80 to 100%
[3]; 0.3 mg/ml aerosol
  % Inhibition (neutrophil, against vehicle group): 24%
  Neutrophil (*10^3 cells/animal): 71.2 ± 13.6 *10^3 cells/animal
[3]; 3 mg/ml aerosol
  % Inhibition (neutrophil, against vehicle group): 62%
  Neutrophil (*10^3 cells/animal): 35.2 ± 3.7 *10^3 cells/animal

## COCc1cnc2sc3cc(Oc4ccccc4CNC(=O)Nc4cc(C(C)(C)C)nn4-c4ccc(O)c(Cl)c4)ccc3n12 [Compound 31, 1-[3-tert-butyl-1-(3-chloro-4-hydroxyphenyl)-1H-pyrazol-5-yl]-3-(2-{[3-(methoxymethyl)imidazo[2,1-b][1,3]benzothiazol-7-yl]oxy}benzyl)urea]
[2]; Concentration 100 nM
  inhibition at 0.1 µM: 80 to 100%
[3]; 0.3 mg/ml aerosol
  % Inhibition (neutrophil, against vehicle group): 60%
  Neutrophil (*10^3 cells/animal): 40.3 ± 6.2 *10^3 cells/animal
[3]; 1.0 mg/ml aerosol
  % Inhibition (neutrophil, against vehicle group): 80%
  Neutrophil (*10^3 cells/animal): 20.4 ± 3.8 *10^3 cells/animal
[4]
  % Inhibition (neutrophil, against vehicle group): 48%
[4]; Mean ± SEM
  Neutrophil (*10^6 cells/animal): 1.8 ± 0.28 *10^6 cells/animal
[5]; guinea pig chronic COPD model, BALF, 2 mg/ml aerosol, 75 minutes
  % inhib^n (neutrophil, against vehicle group): 52%
[5]; guinea pig chronic COPD model, BALF, 2 mg/ml aerosol, 75 minutes, once daily week 9 to 18, Mean ± SEM
  Neutrophil (*10^6cells): 3.3 ± 0.71 *10^6cells
[5]; lung remodeling, histopathological analysis of lung tissue, 2 mg/ml
  Composite score (Range): 0.4 (0.1 to 0.5)
[5]; mucus secretion, 2 mg/ml
  Average number of mucin secreting cells/10 high power field (Range): 301 (190-420) cells/10 high power field

## COc1c(NC(=O)NCc2ccccc2Oc2ccc3c(c2)sc2ncc(CN4CCOCC4)n23)cc(C(C)(C)C)cc1NS(C)(=O)=O [Compound 74, N-(5-tert-butyl-2-methoxy-3-{[(2-{[3-(morpholin-4-ylmethyl)imidazo[2,1-b][1,3]benzothiazol-7-yl]oxy}benzyl)carbamoyl]amino}phenyl) methanesulfonamide]
[2]
  inhibition at 1 µM: 60 to 80%

## Cc1c(F)cc(C(=O)NC2CC2)cc1-c1ccc(C(=O)NCC(C)(C)C)cn1 [Losmapimod]
[6]
  tolerability in clinical studies: well tolerated

## CNC(=O)c1ccc(C)c(-n2c(C)cc(OCc3ccc(F)cc3F)c(Br)c2=O)c1 [PH-797804]
[6]
  tolerability in clinical studies: well tolerated

## O=c1ncn2nc(Sc3ccc(F)cc3F)ccc2c1-c1c(Cl)cccc1Cl [Vx-745]
[7]
  clinical benefit: significant clinical benefit compared to placebo
[8]
  toxicity in safety study: undisclosed CNS toxicity

From patent US10227361B2, “Fused imidazobenzothiazole compounds” (TORRENT PHARMACEUTICALS LIMITED, priority 2014, dated 2019)
